Laboratory results from ChEMBL document CHEMBL4425097, “Adrenomedullin 2.0: Adjusting Key Levers for Metabolic Stability” (J Med Chem, 2016).
Calls of active or inactive are those of the source. The calls are words filed in the database; no cut-off is given here. Where a SMILES comes first, the peptide text is derived from it. Bridges are numbered along the chain shown (N, C = ends).

molecular target: Adrenomedullin receptor AM1; CALCRL/RAMP2 (Homo sapiens) (UniProt O60895+Q16602); experiment: Agonist activity at eYFP-tagged CLR/eCFP-tagged RAMP2-derived AM1 receptor (unknown origin) expressed in HEK293 cells assessed as cAMP accumulation after 3 hrs by ONE-Glo substrate-based luminescence assay; type: functional, cell-based

Activity	SMILES
inactive	CC[C@H](C)[C@H](NC(=O)[C@H](CCC(N)=O)NC(=O)[C@H](Cc1cnc[nH]1)NC(=O)[C@H](C)NC(=O)[C@H](CC(C)C)NC(=O)[C@H](CCCCN)NC(=O)[C@H](CCC(N)=O)NC(=O)[C@@H](NC(=O)[C@@H](N)[C@@H](C)O)C(C)C)C(=O)N[C@@H](Cc1ccc(O)cc1)C(=O)N[C@@H](CCC(N)=O)C(=O)N[C@@H](Cc1ccccc1)C(=O)N[C@H](C(=O)N[C@@H](CC(=O)O)C(=O)N[C@@H](CCCCN)C(=O)N[C@@H](CC(=O)O)C(=O)N[C@@H](CCCCN)C(=O)N[C@@H](CC(=O)O)C(=O)N[C@@H](CC(N)=O)C(=O)N[C@H](C(=O)N[C@@H](C)C(=O)N1CCC[C@H]1C(=O)N[C@@H](CCCNC(=N)N)C(=O)N[C@@H](CO)C(=O)N[C@@H](CCCCN)C(=O)N[C@H](C(=O)N[C@@H](CO)C(=O)N1CCC[C@H]1C(=O)N[C@@H](CCC(N)=O)C(=O)NCC(=O)N[C@@H](Cc1ccc(O)cc1)C(N)=O)[C@@H](C)CC)C(C)C)[C@@H](C)O
inactive	CC[C@H](C)[C@H](NC(=O)[C@H](CCC(N)=O)NC(=O)[C@H](Cc1cnc[nH]1)NC(=O)[C@H](C)NC(=O)[C@H](CC(C)C)NC(=O)[C@H](CCCCN)NC(=O)[C@H](CCC(N)=O)NC(=O)[C@@H](NC(=O)[C@@H](NC(=O)[C@@H]1CSSC[C@H](NC(=O)CNC(=O)CN)C(=O)N[C@@H](CCCNC(=N)N)C(=O)N[C@@H](Cc2ccccc2)C(=O)NCC(=O)N[C@@H]([C@@H](C)O)C(=O)N1)[C@@H](C)O)C(C)C)C(=O)N[C@@H](Cc1ccc(O)cc1)C(=O)N[C@@H](CCC(N)=O)C(=O)N[C@@H](Cc1ccccc1)C(=O)N[C@H](C(=O)N[C@@H](CC(=O)O)C(=O)N[C@@H](CCCCN)C(=O)N[C@@H](CC(=O)O)C(=O)N[C@@H](CCCCN)C(=O)N[C@@H](CC(=O)O)C(=O)N[C@@H](CC(N)=O)C(=O)N[C@H](C(=O)N[C@@H](C)C(=O)N1CCC[C@H]1C(=O)N[C@@H](CCCNC(=N)N)C(=O)O)C(C)C)[C@@H](C)O (H-GGCRFGTCTVQKLAHQIYQFTDKDKDNVAPR-OH; disulfide 3-8)
inactive	CC[C@H](C)[C@H](NC(=O)[C@H](CCC(N)=O)NC(=O)[C@H](Cc1cnc[nH]1)NC(=O)[C@H](C)NC(=O)[C@H](CC(C)C)NC(=O)[C@H](CCCCN)NC(=O)[C@H](CCC(N)=O)NC(=O)[C@@H](NC(=O)[C@@H](NC(=O)[C@@H]1CSSC[C@H](NC(=O)CNC(=O)CN)C(=O)N[C@@H](CCCNC(=N)N)C(=O)N[C@@H](Cc2ccccc2)C(=O)NCC(=O)N[C@@H]([C@@H](C)O)C(=O)N1)[C@@H](C)O)C(C)C)C(=O)N[C@@H](Cc1ccc(O)cc1)C(=O)N[C@@H](CCC(N)=O)C(=O)N[C@@H](Cc1ccccc1)C(=O)N[C@H](C(=O)N[C@@H](CC(=O)O)C(=O)N[C@@H](CCCCN)C(=O)N[C@@H](CC(=O)O)C(=O)N[C@@H](CCCCN)C(=O)N[C@@H](CC(=O)O)C(=O)N[C@@H](CC(N)=O)C(=O)N[C@H](C(=O)N[C@@H](C)C(=O)N1CCC[C@H]1C(=O)N[C@@H](CCCNC(=N)N)C(=O)N[C@@H](CO)C(=O)O)C(C)C)[C@@H](C)O (H-GGCRFGTCTVQKLAHQIYQFTDKDKDNVAPRS-OH; disulfide 3-8)
inactive	C[C@@H](O)[C@@H]1NC(=O)CNC(=O)[C@H](Cc2ccccc2)NC(=O)[C@H](CCCNC(=N)N)NC(=O)[C@@H](NC(=O)CNC(=O)CN)CSSC[C@@H](C(=O)O)NC1=O (H-GGCRFGTC-OH; disulfide 3-8)
